Results: BindingDB's records for doi:10.1021/jm010237l (Abbott Laboratories, 2001)

Target: Endothelin receptor type B (Sus scrofa) (UniProt P35463)
Test: Binding affinity against endothelin B receptor in porcine cerebellar tissue

Chain of Endothelin receptor type B (Sus scrofa) (P35463 whole entry, looked up): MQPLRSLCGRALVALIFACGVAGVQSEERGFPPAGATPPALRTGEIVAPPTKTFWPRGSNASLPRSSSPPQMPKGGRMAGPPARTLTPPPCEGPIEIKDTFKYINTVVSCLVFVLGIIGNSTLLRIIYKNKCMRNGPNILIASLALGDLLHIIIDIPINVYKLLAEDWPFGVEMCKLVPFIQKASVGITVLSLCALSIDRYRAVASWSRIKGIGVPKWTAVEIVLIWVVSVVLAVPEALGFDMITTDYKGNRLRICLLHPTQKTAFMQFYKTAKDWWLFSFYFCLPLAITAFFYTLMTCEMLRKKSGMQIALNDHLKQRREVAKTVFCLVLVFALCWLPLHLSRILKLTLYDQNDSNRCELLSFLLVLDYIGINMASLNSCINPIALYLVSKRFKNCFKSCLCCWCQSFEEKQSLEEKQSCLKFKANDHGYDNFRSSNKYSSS

Compound	IC50 [µM]
CCCCN(CCCC)C(=O)CN1C[C@H](c2ccc3c(c2)CCO3)[C@@H](C(=O)O)[C@@H]1c1ccc(OC)cc1 [(2R,3R,4S)-1-Dibutylcarbamoylmethyl-4-(2,3-dihydro-benzofuran-5-yl)-2-(4-methoxy-phenyl)-pyrrolidine-3-carboxylic acid]	2.67
CCCCN(CCCC)C(=O)CN1C[C@H](c2ccc3occc3c2)[C@@H](C(=O)O)[C@@H]1c1ccc(OC)cc1 [4-Benzofuran-5-yl-1-dibutylcarbamoylmethyl-2-(4-methoxy-phenyl)-pyrrolidine-3-carboxylic acid]	5.08
CCCCN(CCCC)C(=O)CN1C[C@H](c2ccc3c(c2)OCO3)[C@@H](C(=O)O)[C@@H]1c1ccc(F)c(F)c1 [4-Benzo[1,3]dioxol-5-yl-1-dibutylcarbamoylmethyl-2-(3,4-difluoro-phenyl)-pyrrolidine-3-carboxylic acid]	1.04
CCCCN(CCCC)C(=O)CN1C[C@H](c2ccc3c(c2)OCC3)[C@@H](C(=O)O)[C@@H]1c1ccc(OC)cc1 [1-Dibutylcarbamoylmethyl-4-(2,3-dihydro-benzofuran-6-yl)-2-(4-methoxy-phenyl)-pyrrolidine-3-carboxylic acid]	0.96
CCCCN(CCCC)C(=O)CN1C[C@H](c2ccc3c(c2)CCO3)[C@@H](C(=O)O)[C@@H]1c1ccc(C)cc1 [1-Dibutylcarbamoylmethyl-4-(2,3-dihydro-benzofuran-5-yl)-2-p-tolyl-pyrrolidine-3-carboxylic acid]	12
CCCCN(CCCC)C(=O)CN1C[C@H](c2ccc3c(c2)OCO3)[C@@H](C(=O)O)[C@@H]1c1ccc(OC)c(F)c1 [4-Benzo[1,3]dioxol-5-yl-1-dibutylcarbamoylmethyl-2-(3-fluoro-4-methoxy-phenyl)-pyrrolidine-3-carboxylic acid]	0.03
CCCCN(CCCC)C(=O)CN1C[C@H](c2ccc3c(c2)OCO3)[C@@H](C(=O)O)[C@@H]1c1ccc(OC)c(OC)c1 [4-Benzo[1,3]dioxol-5-yl-1-dibutylcarbamoylmethyl-2-(3,4-dimethoxy-phenyl)-pyrrolidine-3-carboxylic acid]	0.3

Other lines, results leading:

IC50 [µM]	Compound
1.3	CCCCN(CCCC)C(=O)CN1C[C@H](c2ccc3c(c2)OCO3)[C@@H](C(=O)O)[C@@H]1c1ccc(CC)cc1 [4-Benzo[1,3]dioxol-5-yl-1-dibutylcarbamoylmethyl-2-(4-ethyl-phenyl)-pyrrolidine-3-carboxylic acid]
8.13	CCCCN(CCCC)C(=O)CN1C[C@H](c2ccc3c(c2)CCO3)[C@@H](C(=O)O)[C@@H]1c1ccc(CC)cc1 [1-Dibutylcarbamoylmethyl-4-(2,3-dihydro-benzofuran-5-yl)-2-(4-ethyl-phenyl)-pyrrolidine-3-carboxylic acid]
7.7	CCCCN(CCCC)C(=O)CN1C[C@H](c2ccc3c(c2)OCCO3)[C@@H](C(=O)O)[C@@H]1c1ccc(CC)cc1 [1-Dibutylcarbamoylmethyl-4-(2,3-dihydro-benzo[1,4]dioxin-6-yl)-2-(4-ethyl-phenyl)-pyrrolidine-3-carboxylic acid]
14.3	CCCCN(CCCC)C(=O)CN1C[C@H](c2ccc3c(c2)OCO3)[C@@H](C(=O)O)[C@@H]1c1ccc(C(F)(F)F)cc1 [4-Benzo[1,3]dioxol-5-yl-1-dibutylcarbamoylmethyl-2-(4-trifluoromethyl-phenyl)-pyrrolidine-3-carboxylic acid]
1.13	CCCCN(CCCC)C(=O)CN1C[C@H](c2ccc3c(c2)OCO3)[C@@H](C(=O)O)[C@@H]1c1ccc(CCC)cc1 [4-Benzo[1,3]dioxol-5-yl-1-dibutylcarbamoylmethyl-2-(4-propyl-phenyl)-pyrrolidine-3-carboxylic acid]
2.14	CCCCN(CCCC)C(=O)CN1C[C@H](c2ccc3c(c2)OCO3)[C@@H](C(=O)O)[C@@H]1c1ccc(C)cc1 [4-Benzo[1,3]dioxol-5-yl-1-dibutylcarbamoylmethyl-2-p-tolyl-pyrrolidine-3-carboxylic acid]
